In patent publication US10329309B2, “3-(3H-imidazo[4,5-B]pyridin-2-yl)-1H-pyrazolo[4,3-B]pyridines and therapeutic uses thereof” (Samumed, LLC, priority 2015, dated 2019):

Experiments:
[1] = system: primary human mesenchymal stem cells (hMSCs); assay: Induction of chondrogenesis in primary human mesenchymal stem cells (nodule imaging, Rhodamine B/Nile Red); type: cell-based; conditions: hMSC chondrogenesis; for Emax: TGF-β3 as positive control, read-out: Max. Activity as % TGF-β3 activity; for EC50: concentration required to induce 50% levels of chondrogenesis vs TGF-β3, read-out: Conc (nM) of 50% TGF-β3 activity
Method in brief: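 hMSCs (passage 3–6) in incomplete chondrogenic induction medium were dosed at 2700–10 nM (96-well, 6-point) or 5000–2.2 nM (384-well, 8-point), 0.03% DMSO final, for 6 days at 37° C. Fixed nodules stained with Rhodamine B/Nile Red were imaged; nodule area normalized to DMSO wells gave EC50, maximum activity and dose at maximum, with TGF-β3 (10 ng/mL) as positive control.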

[2] = system: primary human fibroblasts derived from IPF patients (LL29 cells), α-smooth muscle actin (αSMA); assay: Inhibition of the fibrotic process: TGF-β1-treated primary human fibroblasts from IPF patients, αSMA staining; type: cell-based; conditions: Fibroblast, 96 h, 4 days; for EC50: LL29 fibroblasts from IPF patients, TGF-β1 20 ng/mL, inhibition of fibrotic process
Method in brief: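 Compound dilutions from 10 μM down to […] are dispensed, LL29 cells added in F12 with 1% FBS, and TGF-β1 (20 ng/mL) follows after 1 h. After 4 days, live-cell αSMA positivity is measured by immunofluorescence and normalized to TGF-β1-treated wells to derive EC50.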

SMILES	EC50 [1]	Emax [1]	EC50 [2]	inhibition at 10 µM ([2]; LL29 fibroblasts, TGF-β1 treated, at 10 μM, read-out: percent inhibition at 10 μM (given for EC50 of >10 μM))
COc1cccc(-c2ccnc3[nH]c(-c4n[nH]c5ccc(-c6cncc(NC(=O)Cc7ccccc7)c6)nc45)nc23)c1 [Compound 1000, N-(5-(3-(7-(3-methoxyphenyl)-3H-imidazo[4,5-b]pyridin-2-yl)-1H-pyrazolo[4,3-b]pyridin-5-yl)pyridin-3-yl)-2-phenylacetamide]	–	46%	> 10 µM	23.4%
Clc1ccc(-c2ccnc3[nH]c(-c4n[nH]c5ccc(-c6cncc(CN7CCCC7)c6)nc45)nc23)s1 [Compound 1049, 3-(7-(5-chlorothiophen-2-yl)-3H-imidazo[4,5-b]pyridin-2-yl)-5-(5-(pyrrolidin-1-ylmethyl)pyridin-3-yl)-1H-pyrazolo[4,3-b]pyridine]	10 nM	74%	0.681 µM	–
O=C(Nc1cncc(-c2ccc3[nH]nc(-c4nc5c(-c6ccc(Cl)s6)ccnc5[nH]4)c3n2)c1)C1CCC1 [Compound 1056, N-(5-(3-(7-(5-chlorothiophen-2-yl)-3H-imidazo[4,5-b]pyridin-2-yl)-1H-pyrazolo [4,3-b]pyridin-5-yl)pyridin-3-yl)cyclobutanecarboxamide]	10 nM	102%	0.284 µM	–

Continued, in another order:

EC50 [1]	SMILES	Emax [1]	EC50 [2]	inhibition at 10 µM ([2]; LL29 fibroblasts, TGF-β1 treated, at 10 μM, read-out: percent inhibition at 10 μM (given for EC50 of >10 μM))
7 nM	CN(C)CC(=O)Nc1cncc(-c2ccc3[nH]nc(-c4nc5c(-c6cccc(F)c6)ccnc5[nH]4)c3n2)c1 [Compound 969, 2-(dimethylamino)-N-(5-(3-(7-(3-fluorophenyl)-3H-imidazo[4,5-b]pyridin-2-yl)-1H-pyrazolo[4,3-b]pyridin-5-yl)pyridin-3-yl)acetamide]	72%	4.93 µM	–
100 nM	COc1cccc(-c2ccnc3[nH]c(-c4n[nH]c5ccc(-c6cccnc6)nc45)nc23)c1 [Compound 994, 3-(7-(3-methoxyphenyl)-3H-imidazo[4,5-b]pyridin-2-yl)-5-(pyridin-3-yl)-1H-pyrazolo[4,3-b]pyridine]	50%	0.59 µM	–
10 nM	CC(C)CC(=O)Nc1cncc(-c2ccc3[nH]nc(-c4nc5c(-c6ccc(Cl)s6)ccnc5[nH]4)c3n2)c1 [Compound 1037, N-(5-(3-(7-(5-chlorothiophen-2-yl)-3H-imidazo[4,5-b]pyridin-2-yl)-1H-pyrazolo [4,3-b]pyridin-5-yl)pyridin-3-yl)-3-methylbutanamide]	67%	0.511 µM	–
30 nM	CC(C)(C)C(=O)Nc1cncc(-c2ccc3[nH]nc(-c4nc5c(-c6ccc(Cl)s6)ccnc5[nH]4)c3n2)c1 [Compound 1043, N-(5-(3-(7-(5-chlorothiophen-2-yl)-3H-imidazo[4,5-b]pyridin-2-yl)-1H-pyrazolo [4,3-b]pyridin-5-yl)pyridin-3-yl)pivalamide]	65%	0.419 µM	–
